The results in this text go back to PubChem BioAssay (NCI).

Test systems include SK-OV-3 ovarian; NCI-H522 lung; MDA-MB-435; NCI-H460 lung; A498 renal; M14 melanoma; COLO 205 colon; SNB-19 CNS.
Common to all, as to test: growth of human tumour cells (NCI), 48 h

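Each compound was tested at five concentrations against cells in 96-well plates for 48 hours. GI50: concentration for 50% inhibition of growth. TGI: total growth inhibition.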 Some results are limits rather than exact numbers.

Turning to `NC(=O)c1cccc2c(N[C@H](CN3CCC3)c3ccc(Cl)c(C(F)(F)F)c3)ncnc12`, the GI50 was 493 nM in the test on SK-OV-3 ovarian; 5100 nM in the test with NCI-H522 lung; 1440 nM in the test on MDA-MB-435; 739 nM in the test on NCI-H460 lung; 138 nM with A498 renal; 1470 nM in the test with M14 melanoma. The GI50 with COLO 205 colon was 837 nM; in the test with SNB-19 CNS, 1190 nM. Further, the TGI with SK-OV-3 ovarian was found to be 4300 nM; with NCI-H522 lung, 20300 nM; in the test with MDA-MB-435 it was 11300 nM; with NCI-H460 lung, 12400 nM; with A498 renal, 908 nM; in the test with M14 melanoma, 3690 nM. Further, the TGI came to 2660 nM with COLO 205 colon and 11400 nM with SNB-19 CNS.

On to `N#CC(C#N)=CNCCN1CCN(C=C(C#N)C#N)CC1`, for which the TGI with SK-OV-3 ovarian, with NCI-H522 lung, with MDA-MB-435, with NCI-H460 lung, with A498 renal and in the test with M14 melanoma was > 100000 nM each time. Besides, the TGI with COLO 205 colon and in the test with SNB-19 CNS was > 100000 nM each time.

For `O=C(CCCn1c2c(sc3ccccc32)c(=O)n2nnc(-c3ccccc3)c12)NCCc1cnc[nH]1`, the GI50 with SK-OV-3 ovarian is 2000 nM; in the test with NCI-H522 lung, 34.6 nM; in the test with MDA-MB-435, 345 nM; with NCI-H460 lung, 1700 nM; with A498 renal, 1410 nM; with COLO 205 colon, 299 nM. The GI50 in the test with SNB-19 CNS was 2970 nM. Besides, the TGI was found to be 6040 nM in the test on SK-OV-3 ovarian; 2790 nM in the test on NCI-H522 lung; 1870 nM with MDA-MB-435; 3110 nM in the test on NCI-H460 lung; 2850 nM with A498 renal; 2350 nM in the test with COLO 205 colon. Besides, in the test on SNB-19 CNS, the TGI was 14700 nM.

With `O=C1/C(=C/c2ccc([N+](=O)[O-])s2)Oc2cc(Cl)ccc21`, the GI50 was 23500 nM with SK-OV-3 ovarian; 250 nM in the test on NCI-H522 lung; 1840 nM in the test on NCI-H460 lung; 29800 nM in the test with A498 renal; 1720 nM in the test with SNB-19 CNS. The TGI was > 100000 nM with SK-OV-3 ovarian; 713 nM with NCI-H522 lung; > 100000 nM in the test on NCI-H460 lung; > 85200 nM in the test with A498 renal; 4520 nM in the test on SNB-19 CNS.

Take `Cc1ccc([P+](Cc2ccccc2)(c2ccccc2)c2ccccc2)cc1`: the GI50 is 4100 nM with SK-OV-3 ovarian; 1780 nM in the test on NCI-H522 lung; 610 nM in the test on MDA-MB-435; 2330 nM with NCI-H460 lung; 1630 nM in the test on A498 renal; 2780 nM with M14 melanoma. Moreover, the GI50 in the test on SNB-19 CNS is 2810 nM. Besides, the TGI with SK-OV-3 ovarian was > 100000 nM; in the test on NCI-H522 lung it was 6880 nM; in the test with MDA-MB-435, 3420 nM; in the test with NCI-H460 lung, 10500 nM; in the test on A498 renal, 7150 nM; with M14 melanoma, 16400 nM. Moreover, the TGI with SNB-19 CNS was > 100000 nM.

Consider `Oc1c(C(Nc2ccccn2)c2cccc(Oc3ccccc3)c2)ccc2cccnc12` (stereo not drawn), for which the GI50 in the test with SK-OV-3 ovarian is 836 nM; in the test with NCI-H522 lung it was 492 nM; with MDA-MB-435, 496 nM; with NCI-H460 lung, 365 nM; in the test on A498 renal, 262 nM; in the test with COLO 205 colon it was 492 nM. Further, the GI50 in the test with SNB-19 CNS is 366 nM. Moreover, the TGI in the test with SK-OV-3 ovarian amounted to 15600 nM; in the test with NCI-H522 lung it was 18600 nM; with MDA-MB-435 it was 16400 nM; in the test on NCI-H460 lung, 10500 nM; in the test with A498 renal, 6220 nM; in the test with COLO 205 colon, 14700 nM. The same compound yielded a TGI in the test with SNB-19 CNS of 14700 nM.

On to `CC1CCCC(C(=O)CC2CC(=O)NC(=O)C2)C1=O` (stereo not drawn), for which the TGI in the test with SK-OV-3 ovarian, with MDA-MB-435, in the test with NCI-H460 lung, with A498 renal, in the test with M14 melanoma and in the test with COLO 205 colon was > 100000 nM throughout. Further, the TGI in the test on SNB-19 CNS was > 100000 nM.

Regarding `CN1CC=C(c2cc(NC(=O)Nc3ccc(Oc4ccnc(NC(=O)C5CC5)c4)c(F)c3)cc(C(F)(F)F)c2)CC1`, the GI50 with SK-OV-3 ovarian was 2740 nM; with NCI-H522 lung, 828 nM; in the test on MDA-MB-435, 429 nM; with NCI-H460 lung it was 194 nM; in the test with A498 renal, 2050 nM; with M14 melanoma, 524 nM. Moreover, the GI50 in the test on SNB-19 CNS is 227 nM. Besides, the TGI in the test with SK-OV-3 ovarian came to 7250 nM; in the test with NCI-H522 lung it was 1840 nM; in the test with MDA-MB-435 it was 1170 nM; in the test with NCI-H460 lung, 660 nM; with A498 renal, 3900 nM; in the test on M14 melanoma, 1480 nM. The compound further had a TGI in the test with SNB-19 CNS of 1480 nM.

For `CCc1ccccc1NC(=O)C(C#N)C1=C(Cl)C(=O)c2ccccc2C1=O` (stereo not drawn), the TGI with SK-OV-3 ovarian was > 100000 nM; with NCI-H522 lung, 29700 nM; with MDA-MB-435, 63000 nM; in the test on NCI-H460 lung, 40600 nM; with M14 melanoma it was 21800 nM; in the test on COLO 205 colon, 31100 nM. For the same compound, the TGI with SNB-19 CNS worked out at 72300 nM.

As for `CCCCCCCCCCCCCC[n+]1ccccc1`, the GI50 in the test with SK-OV-3 ovarian was 1450 nM; with NCI-H522 lung it was 923 nM; in the test on MDA-MB-435, 549 nM; in the test on NCI-H460 lung, 1220 nM; in the test with A498 renal it was 717 nM; in the test on M14 melanoma, 459 nM. Also, the GI50 in the test with COLO 205 colon was 614 nM. For the same compound, the TGI is 4260 nM with SK-OV-3 ovarian; 3370 nM in the test with NCI-H522 lung; 1870 nM with MDA-MB-435; 2730 nM with NCI-H460 lung; 3570 nM in the test with A498 renal; 1980 nM in the test on M14 melanoma. The compound also returned a TGI in the test with COLO 205 colon of 2120 nM.

In the case of `CN(C)C1CCN(Cc2ccc(NC(=O)c3cncc(C#Cc4cnc(N)c5ncccc45)c3)cc2C(F)(F)F)CC1`, the GI50 with NCI-H522 lung was 9860 nM; in the test with MDA-MB-435 it was 922 nM; with NCI-H460 lung it was 1120 nM; in the test on A498 renal, 5650 nM; in the test with M14 melanoma it was 962 nM; in the test on SNB-19 CNS, 10000 nM. The TGI in the test on NCI-H522 lung was determined as 26500 nM; with MDA-MB-435 it was 1830 nM; in the test on NCI-H460 lung, 2500 nM; in the test with A498 renal it was 14100 nM; with M14 melanoma, 1870 nM; with SNB-19 CNS it was 21200 nM.

As for `COc1cc(-c2cc3ncccc3c3nc(OCCN(C)C)c4cccnc4c23)cc(OC)c1OC`, the GI50 is 458 nM with SK-OV-3 ovarian; 457 nM in the test with NCI-H522 lung; 671 nM with MDA-MB-435; 349 nM with NCI-H460 lung; 485 nM in the test on M14 melanoma; 576 nM in the test on SNB-19 CNS. Moreover, the TGI was determined as 2180 nM in the test on SK-OV-3 ovarian; 2780 nM with NCI-H522 lung; 3750 nM with MDA-MB-435; 1880 nM in the test on NCI-H460 lung; 10400 nM in the test with M14 melanoma; 29500 nM in the test on SNB-19 CNS.

Turning to `COC(=O)Oc1nn(C(=O)OC)c(=O)c2ccccc12`, the TGI in the test with SK-OV-3 ovarian, in the test with NCI-H522 lung, in the test on MDA-MB-435, with M14 melanoma, in the test with COLO 205 colon and in the test on SNB-19 CNS was > 100000 nM each time.
